Laboratory results published in US7153866B1 (The United States of America as represented by the …, priority 1997, dated 2006).

Tests used:
C3H female mice = assay: Lifetime incidence of cancer in normal C3H female mice given Tempol in drinking water; format: in vivo; conditions: FIG. 2
Text: Female C3H mice were supplied through the Frederick Cancer Research Center-Animal Production, Frederick, Md. […] All groups were allowed food and water ad libitum. All groups were followed for their entire life span. Animals were sacrificed at the first sign of a visible tumor nodule, gross enlargement of spleen, or marked difficulty in breathing. The presence of tumor was confirmed histologically.

neoplastic cell lines = conditions: in vitro; Monti et al., PAACR 1995 and 1997; cited from earlier work

In the case of CC1(C)CC(O)CC(C)(C)N1[O] [Tempol, 4-hydroxy-2,2,6,6-tetramethylpiperidine-1-oxyl], the “incidence of cancer (total number of tumors/group) compared to controls” value (C3H female mice; Tempol 58 mM in drinking water for entire life span) is given as “four-fold reduction”, the “incidence of cancer (total number of tumors/group) compared to both control groups” value (C3H female mice; Tempol 58 mM in drinking water for one year) is given as “dramatically reduced the incidence of cancer” and the “cytotoxicity against neoplastic cell lines” value (neoplastic cell lines) is given as “cytotoxic”.
